Patent US12275731B2, “Azaindole inhibitors of wild-type and mutant forms of LRRK2” (DANA-FARBER CANCER INSTITUTE, INC., priority 2018, dated 2025)

Experiments:
Assay in all cases: KinomeScan profiling
Type in all cases: binding
PLK3 = PLK3 (Homo sapiens, UniProt Q9H4B4); conditions: PLK3, 1 μM; read-out: % control
Summary of the method: (§1)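 Selectivity was assessed by binding competition at 1 μM against 468 kinases. Values below 35% of control define an interaction.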

TAK1 = target: T1, TAK1 (Homo sapiens, UniProt O43318); conditions: TAK1, 1 μM; read-out: % control
T1 construct: purchased KinomeScan® (panel service)
T1 sequence (O43318 1-606): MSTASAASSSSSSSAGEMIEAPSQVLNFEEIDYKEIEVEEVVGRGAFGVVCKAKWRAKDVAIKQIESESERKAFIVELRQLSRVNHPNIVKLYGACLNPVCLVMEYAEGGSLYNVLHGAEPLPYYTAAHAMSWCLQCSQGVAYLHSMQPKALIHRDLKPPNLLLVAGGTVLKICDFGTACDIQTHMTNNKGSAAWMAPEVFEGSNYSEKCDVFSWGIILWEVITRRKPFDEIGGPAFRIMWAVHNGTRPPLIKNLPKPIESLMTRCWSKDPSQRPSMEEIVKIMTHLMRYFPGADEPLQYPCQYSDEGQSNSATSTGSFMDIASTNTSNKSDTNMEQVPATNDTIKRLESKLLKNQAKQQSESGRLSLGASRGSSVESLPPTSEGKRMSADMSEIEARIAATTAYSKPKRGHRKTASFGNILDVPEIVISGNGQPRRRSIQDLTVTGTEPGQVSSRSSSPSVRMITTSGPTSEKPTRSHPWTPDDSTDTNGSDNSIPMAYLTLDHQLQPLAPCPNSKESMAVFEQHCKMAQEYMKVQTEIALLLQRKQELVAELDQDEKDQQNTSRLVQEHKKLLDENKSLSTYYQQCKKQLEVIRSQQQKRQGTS
Summary of the method: as §1

DYRK1A = DYRK1A (Homo sapiens, UniProt Q13627); conditions: read-out: % control
Summary of the method: as §1

HIPK1 = HIPK1 (Homo sapiens, UniProt Q86Z02); conditions: HIPK1, 1 μM; read-out: % control
Summary of the method: as §1

FLT3(R834Q) = target: T2, FLT3(R834Q) (Homo sapiens, UniProt P36888, R834Q); conditions: read-out: % control
T2 sequence (P36888 27-993 R834Q): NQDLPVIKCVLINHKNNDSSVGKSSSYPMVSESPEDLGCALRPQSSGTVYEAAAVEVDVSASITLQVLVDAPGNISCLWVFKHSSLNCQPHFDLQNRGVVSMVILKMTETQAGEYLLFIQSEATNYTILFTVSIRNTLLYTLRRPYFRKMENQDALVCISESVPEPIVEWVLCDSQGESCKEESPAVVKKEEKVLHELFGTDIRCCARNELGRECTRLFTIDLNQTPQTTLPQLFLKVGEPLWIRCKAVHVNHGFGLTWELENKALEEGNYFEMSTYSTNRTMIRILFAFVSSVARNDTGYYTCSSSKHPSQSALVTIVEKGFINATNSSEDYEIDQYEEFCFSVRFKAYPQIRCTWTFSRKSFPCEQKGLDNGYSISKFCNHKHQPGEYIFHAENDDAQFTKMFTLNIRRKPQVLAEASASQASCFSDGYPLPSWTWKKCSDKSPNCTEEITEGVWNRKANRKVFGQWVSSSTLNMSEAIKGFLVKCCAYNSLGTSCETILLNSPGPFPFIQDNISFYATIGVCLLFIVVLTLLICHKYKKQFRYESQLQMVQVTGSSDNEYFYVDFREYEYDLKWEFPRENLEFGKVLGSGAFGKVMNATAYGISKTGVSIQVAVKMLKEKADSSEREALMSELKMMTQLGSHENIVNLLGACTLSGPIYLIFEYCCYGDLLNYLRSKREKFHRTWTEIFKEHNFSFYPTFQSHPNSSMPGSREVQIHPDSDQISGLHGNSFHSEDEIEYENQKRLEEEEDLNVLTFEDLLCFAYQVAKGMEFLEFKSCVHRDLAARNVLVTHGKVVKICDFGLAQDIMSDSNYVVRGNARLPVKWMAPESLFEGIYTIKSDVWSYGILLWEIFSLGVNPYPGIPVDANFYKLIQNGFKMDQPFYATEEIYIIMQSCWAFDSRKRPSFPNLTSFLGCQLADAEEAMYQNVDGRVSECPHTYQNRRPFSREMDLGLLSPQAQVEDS
Summary of the method: as §1

AMPK-alpha2 = target: T3, AMPK-alpha2 (Homo sapiens, UniProt P54646); conditions: AMPK-alpha2, 1 μM; read-out: % control
T3 construct: purchased KinomeScan®
Summary of the method: as §1

SgK110 = target: T4, SgK110 (Homo sapiens, UniProt P0C264); conditions: SgK110, 1 μM; read-out: % control
T4 construct: purchased KinomeScan® (panel service)
T4 sequence (P0C264 1-359): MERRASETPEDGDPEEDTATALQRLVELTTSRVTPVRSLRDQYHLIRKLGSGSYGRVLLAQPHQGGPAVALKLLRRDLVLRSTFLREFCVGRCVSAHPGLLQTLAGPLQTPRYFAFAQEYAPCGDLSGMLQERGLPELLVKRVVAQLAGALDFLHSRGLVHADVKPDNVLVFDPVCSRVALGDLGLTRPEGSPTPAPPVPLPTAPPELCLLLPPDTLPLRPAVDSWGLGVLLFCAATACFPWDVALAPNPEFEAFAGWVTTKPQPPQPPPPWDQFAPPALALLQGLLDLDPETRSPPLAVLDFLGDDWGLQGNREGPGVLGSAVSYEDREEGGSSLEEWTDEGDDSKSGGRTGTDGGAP
Summary of the method: as §1

MTOR = MTOR (Homo sapiens, UniProt P42345); conditions: read-out: % control
Summary of the method: as §1

[1] = target: T5, ABL1(F317I)-phoshorylated (Homo sapiens, UniProt P00519, F317I); conditions: read-out: % control
T5 construct: purchased KinomeScan®
Summary of the method: as §1

T5 sequence (P00519 whole entry F317I): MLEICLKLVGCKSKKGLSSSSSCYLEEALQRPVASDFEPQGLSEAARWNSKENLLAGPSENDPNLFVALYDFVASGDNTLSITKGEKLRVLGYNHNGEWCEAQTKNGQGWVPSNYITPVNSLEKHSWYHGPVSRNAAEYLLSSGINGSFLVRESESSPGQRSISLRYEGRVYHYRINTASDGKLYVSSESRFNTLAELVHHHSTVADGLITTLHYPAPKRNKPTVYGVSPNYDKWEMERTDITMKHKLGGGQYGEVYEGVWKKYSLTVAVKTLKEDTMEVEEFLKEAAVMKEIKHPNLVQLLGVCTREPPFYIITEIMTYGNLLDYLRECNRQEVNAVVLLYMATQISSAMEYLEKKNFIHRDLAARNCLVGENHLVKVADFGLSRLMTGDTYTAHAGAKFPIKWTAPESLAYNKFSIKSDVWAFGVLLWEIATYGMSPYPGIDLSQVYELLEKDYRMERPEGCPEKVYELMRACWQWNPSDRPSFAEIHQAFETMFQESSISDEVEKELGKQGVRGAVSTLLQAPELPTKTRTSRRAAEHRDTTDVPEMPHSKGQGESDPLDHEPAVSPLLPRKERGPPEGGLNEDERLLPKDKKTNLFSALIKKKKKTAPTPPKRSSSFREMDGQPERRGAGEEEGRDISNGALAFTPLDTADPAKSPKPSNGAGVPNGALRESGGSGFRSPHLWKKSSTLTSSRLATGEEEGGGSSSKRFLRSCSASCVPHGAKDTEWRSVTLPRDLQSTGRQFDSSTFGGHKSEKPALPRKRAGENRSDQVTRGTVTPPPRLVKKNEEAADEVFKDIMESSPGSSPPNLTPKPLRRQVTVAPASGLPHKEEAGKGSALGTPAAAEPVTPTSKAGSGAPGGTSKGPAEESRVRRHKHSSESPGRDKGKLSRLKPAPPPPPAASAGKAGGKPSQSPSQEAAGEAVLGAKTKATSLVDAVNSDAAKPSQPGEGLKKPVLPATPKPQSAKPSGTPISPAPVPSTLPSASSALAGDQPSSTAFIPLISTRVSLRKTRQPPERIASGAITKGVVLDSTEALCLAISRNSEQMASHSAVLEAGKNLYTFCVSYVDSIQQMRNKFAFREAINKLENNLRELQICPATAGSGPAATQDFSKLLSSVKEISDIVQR
PLK3, sequence (Q9H4B4 whole entry): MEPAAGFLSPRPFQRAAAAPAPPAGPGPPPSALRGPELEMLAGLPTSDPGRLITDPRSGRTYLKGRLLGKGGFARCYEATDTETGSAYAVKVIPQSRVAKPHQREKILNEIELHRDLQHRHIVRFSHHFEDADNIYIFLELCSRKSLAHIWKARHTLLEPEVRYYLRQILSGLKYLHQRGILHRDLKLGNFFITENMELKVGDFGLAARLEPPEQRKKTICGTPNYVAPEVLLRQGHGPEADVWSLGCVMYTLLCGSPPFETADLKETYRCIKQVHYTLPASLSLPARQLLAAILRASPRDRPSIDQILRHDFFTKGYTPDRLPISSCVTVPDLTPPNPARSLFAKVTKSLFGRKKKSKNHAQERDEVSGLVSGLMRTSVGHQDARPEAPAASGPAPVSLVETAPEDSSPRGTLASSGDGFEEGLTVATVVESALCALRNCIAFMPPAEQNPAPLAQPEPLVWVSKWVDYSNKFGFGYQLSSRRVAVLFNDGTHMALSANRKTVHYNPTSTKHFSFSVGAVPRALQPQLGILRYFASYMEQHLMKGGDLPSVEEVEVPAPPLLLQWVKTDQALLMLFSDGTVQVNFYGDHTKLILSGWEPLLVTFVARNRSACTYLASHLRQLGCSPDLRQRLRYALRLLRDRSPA
HIPK1, sequence (Q86Z02 whole entry): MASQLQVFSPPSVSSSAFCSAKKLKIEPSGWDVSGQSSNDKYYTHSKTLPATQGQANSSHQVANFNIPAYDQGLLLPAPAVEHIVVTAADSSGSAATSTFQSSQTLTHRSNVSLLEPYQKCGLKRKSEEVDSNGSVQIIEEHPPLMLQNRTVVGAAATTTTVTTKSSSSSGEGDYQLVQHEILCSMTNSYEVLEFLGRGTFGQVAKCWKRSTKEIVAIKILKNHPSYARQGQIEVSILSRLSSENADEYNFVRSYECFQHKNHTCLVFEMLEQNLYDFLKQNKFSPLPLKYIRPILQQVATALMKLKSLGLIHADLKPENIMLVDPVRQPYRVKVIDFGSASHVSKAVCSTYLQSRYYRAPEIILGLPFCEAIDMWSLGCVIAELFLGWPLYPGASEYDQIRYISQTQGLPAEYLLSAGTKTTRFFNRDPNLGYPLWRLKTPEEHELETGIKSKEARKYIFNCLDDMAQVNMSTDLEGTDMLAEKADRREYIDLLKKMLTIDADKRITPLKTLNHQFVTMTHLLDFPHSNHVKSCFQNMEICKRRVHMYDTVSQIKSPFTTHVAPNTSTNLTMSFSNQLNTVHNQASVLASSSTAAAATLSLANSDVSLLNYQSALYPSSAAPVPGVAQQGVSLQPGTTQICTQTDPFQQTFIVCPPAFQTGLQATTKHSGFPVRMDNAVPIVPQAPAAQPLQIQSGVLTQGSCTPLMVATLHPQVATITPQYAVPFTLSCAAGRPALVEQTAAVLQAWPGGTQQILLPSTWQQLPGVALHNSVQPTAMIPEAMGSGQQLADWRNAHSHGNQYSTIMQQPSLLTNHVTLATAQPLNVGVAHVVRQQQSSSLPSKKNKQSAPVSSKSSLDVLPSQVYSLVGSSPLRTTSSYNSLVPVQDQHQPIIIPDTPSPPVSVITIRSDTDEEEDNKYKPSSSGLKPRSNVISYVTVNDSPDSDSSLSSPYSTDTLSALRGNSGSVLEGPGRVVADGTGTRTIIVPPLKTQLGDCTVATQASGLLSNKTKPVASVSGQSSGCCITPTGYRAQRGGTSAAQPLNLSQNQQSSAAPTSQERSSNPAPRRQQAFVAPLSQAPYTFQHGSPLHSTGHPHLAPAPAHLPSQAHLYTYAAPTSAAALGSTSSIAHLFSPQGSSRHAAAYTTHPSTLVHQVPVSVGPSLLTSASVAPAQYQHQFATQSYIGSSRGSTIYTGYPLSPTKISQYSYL
T3 sequence (P54646 whole entry): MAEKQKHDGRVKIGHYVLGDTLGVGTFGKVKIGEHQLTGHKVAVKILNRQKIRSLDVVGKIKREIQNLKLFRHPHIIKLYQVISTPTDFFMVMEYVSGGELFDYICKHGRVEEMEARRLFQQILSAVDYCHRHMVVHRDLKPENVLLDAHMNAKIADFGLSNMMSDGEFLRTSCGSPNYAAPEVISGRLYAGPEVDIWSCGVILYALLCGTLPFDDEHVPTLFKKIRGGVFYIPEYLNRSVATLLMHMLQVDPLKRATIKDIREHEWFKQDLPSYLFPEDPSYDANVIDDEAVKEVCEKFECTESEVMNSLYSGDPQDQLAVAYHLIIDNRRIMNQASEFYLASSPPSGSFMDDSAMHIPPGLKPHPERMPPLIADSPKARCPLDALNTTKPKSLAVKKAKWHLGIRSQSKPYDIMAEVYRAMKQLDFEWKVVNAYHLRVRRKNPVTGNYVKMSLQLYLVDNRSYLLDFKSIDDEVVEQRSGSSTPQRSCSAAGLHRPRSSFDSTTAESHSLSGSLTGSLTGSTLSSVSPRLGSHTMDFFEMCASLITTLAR

Which remaining binding at 1 µM (PLK3) does the source give for `CNc1c(-c2cnn([C@H]3CCN(C(C)=O)C[C@@H]3F)c2)cnc2[nH]cc(Cl)c12` [Compound 77, 1-((3S,4S)-4-(4-(3-chloro-4-(methylamino)-1H-pyrrolo[2,3-b]pyridin-5-yl)-1H-pyrazol-1-yl)-3-fluoropiperidin-1-yl)ethan-1-one] here?
The remaining binding at 1 µM was 78%.

What about the remaining binding at 1 µM (TAK1) of the same compound?
The remaining binding at 1 µM was 21%.

What about the remaining binding at 1 µM (DYRK1A) of the same compound?
The remaining binding at 1 µM was 58%.

What about the remaining binding at 1 µM (HIPK1) of the same compound?
The remaining binding at 1 µM was 70%.

What about the remaining binding at 1 µM (FLT3(R834Q)) of the same compound?
The remaining binding at 1 µM was 45%.

And the remaining binding at 1 µM (AMPK-alpha2)?
The remaining binding at 1 µM was 99%.

What about the remaining binding at 1 µM (SgK110) of the same compound?
Its remaining binding at 1 µM is 100%.

What about the remaining binding at 1 µM (MTOR) of the same compound?
The remaining binding at 1 µM was 60%.

And the remaining binding at 1 µM [1]?
Its remaining binding at 1 µM is 81%.

For `O=C(c1ccc(-c2cnc3[nH]cc(Cl)c3c2NC2CCCC2)cc1)N1CCC(N2CCOCC2)CC1` [Compound 101, (4-(3-chloro-4-(cyclopentylamino)-1H-pyrrolo[2,3-b]pyridin-5-yl)phenyl)(4-morpholinopiperidin-1-yl)methanone], which remaining binding at 1 µM (PLK3) is on record?
The remaining binding at 1 µM was 84%.

What about the remaining binding at 1 µM (TAK1) of the same compound?
Its remaining binding at 1 µM is 6.1%.

What about the remaining binding at 1 µM (DYRK1A) of the same compound?
Its remaining binding at 1 µM is 4%.

What about the remaining binding at 1 µM (HIPK1) of the same compound?
The remaining binding at 1 µM was 92%.

And the remaining binding at 1 µM (FLT3(R834Q))?
The remaining binding at 1 µM was 75%.

And the remaining binding at 1 µM (AMPK-alpha2)?
The remaining binding at 1 µM was 55%.

What about the remaining binding at 1 µM (SgK110) of the same compound?
The remaining binding at 1 µM was 100%.

And the remaining binding at 1 µM (MTOR)?
The remaining binding at 1 µM was 95%.

What about the remaining binding at 1 µM [1] of the same compound?
The remaining binding at 1 µM was 10%.

`CNc1c(-c2ccc(C(=O)N3CCC(N4CCOCC4)CC3)cc2)cnc2[nH]cc(Cl)c12` [Compound 96, (4-(3-chloro-4-(methylamino)-1H-pyrrolo[2,3-b]pyridin-5-yl)phenyl)(4-morpholinopiperidin-1-yl)methanone] was tested. Which remaining binding at 1 µM (PLK3) did it give?
The remaining binding at 1 µM was 99%.

And the remaining binding at 1 µM (TAK1)?
Its remaining binding at 1 µM is 6.9%.

What about the remaining binding at 1 µM (DYRK1A) of the same compound?
Its remaining binding at 1 µM is 69%.

What about the remaining binding at 1 µM (HIPK1) of the same compound?
The remaining binding at 1 µM was 68%.

And the remaining binding at 1 µM (FLT3(R834Q))?
The remaining binding at 1 µM was 52%.

What about the remaining binding at 1 µM (AMPK-alpha2) of the same compound?
The remaining binding at 1 µM was 66%.

And the remaining binding at 1 µM (SgK110)?
Its remaining binding at 1 µM is 100%.

What about the remaining binding at 1 µM (MTOR) of the same compound?
Its remaining binding at 1 µM is 78%.

And the remaining binding at 1 µM [1]?
Its remaining binding at 1 µM is 100%.
